Reference: US12364703B2, “Homogeneous ophthalmic composition” (priority 2015, dated 2025)
Structures can show the parent of a compound that is named as a salt.

Assay: LCMS and standard curve analysis of the concentration of each active ingredient in solution
Format: physicochemical
Conditions: three samples of solutions containing the three active ingredients; LCMS, standard curve
Protocol: Separate stock solutions of moxifloxacin HCI, dexamethasone, and sodium bromfenac were used as standards. Three different samples of solutions containing the three active ingredients, i.e., moxifloxacin HCI, dexamethasone, and sodium bromfenac were analyzed for the concentration of moxifloxacin in solution, the concentration of dexamethasone in solution, and the concentration of sodium bromfenac in solution.

| Concentration in Solution | SMILES |
| --- | --- |
| 40.5 µg/mL | Nc1c(CC(=O)O)cccc1C(=O)c1ccc(Br)cc1 [bromfenac sodium] |
| 5458 µg/mL | COc1c(N2C[C@@H]3CCCN[C@@H]3C2)c(F)cc2c(=O)c(C(=O)O)cn(C3CC3)c12 [moxifloxacin HCI, moxifloxacin hydrochloride] |
